Measurements from PMC10794137, “A new antibiotic traps lipopolysaccharide in its intermembrane transporter” (Nature, 2024).
“And” between values parts separate entries of the source, which are not always exact repeats. Identical values can stand only once.

Tests used:
LptB2F^I317NGC = assay: LPS release assay, LptB2F(I317N)GC; assay type: biochemical, Acinetobacter baylyi; settings: LptF I317N complex, E. coli LPS
Protocol: Proteoliposomes were prepared as described previously. Aqueous E. coli polar lipid extract (Avanti Polar Lipids) (30 mg ml^−1) and aqueous LPS from E. coli EH100 (Ra mutant; Sigma) (2 mg ml^−1) were sonicated briefly for homogenization. For experiments testing the effect of LPS structure, we used LPS isolated from either GKM374 (BL21DE3 eptA::catR arnA::kanR eptC::gentR) or TXM418 (BL21DE3 eptA::catR arnA::FRT eptB::gentR lpxM::kanR) as described previously. A mixture of 20 mM Tris-HCl (pH 8.0), 150 mM NaCl, 7.5 mg ml^−1 of E. coli polar lipids, 0.5 mg ml^−1 of LPS and 0.25% DDM was prepared and kept on ice for 10 min. Purified LptB2FGC or LptB2FG was added to a final concentration of 0.86 μM and the mixture was left on ice for 20 min. The mixture was diluted 100-fold with cold 20 mM Tris-HCl (pH 8.0) and 150 mM NaCl and kept on ice for 20 min. The proteoliposomes were pelleted (300,000g, 2 h, 4 °C), resuspended in 20 mM Tris-HCl (pH 8.0) and 150 mM NaCl, diluted 100× and centrifuged (300,000g, 2 h, 4 °C). The pellets were resuspended in a mixture of 20 mM Tris-HCl (pH 8.0), 150 mM NaCl and 10% glycerol (250 μl per 100 μl of the original predilution solution), homogenized by sonication, flash frozen and stored at −80 °C until use.
The amounts of release of LPS from proteoliposomes to LptA were measured as previously described. […]

[1] = test system: Acinetobacter baylyi ΔlpxM; assay: MIC by broth microdilution, A. baylyi ΔlpxM; assay type: cell-based
Protocol: Culture, genetic manipulation and MIC measurements of A. baylyi ADP1 were conducted according to previously reported procedures[46],[51]. Point mutants were constructed in a two-step procedure following ref. [52] with the introduction and excision of the integration cassette at codon 66 of pepA, wherein the excising fragment of otherwise wild-type chromosomal DNA sequence from codon 406 of pepA to codon 193 of lptG bore the desired mutation and the resulting clones were screened by amplicon sequencing from codon 81 of HolC to codon 501 of GpmI, whereas lpxM deletion was achieved following the same procedure except that the integration cassette insertion and excision removed codons 79–279 of lpxM to avoid interference with neighbouring and overlapping genes that a larger deletion may risk and replaced codon 78 with an ochre stop codon to prevent a readthrough resulting in an aberrant fusion, with the excising fragment sequence spanning from codon 211 of sppA to codon 497 of ComA and verified by amplicon sequencing from codon 94 of MhpC to codon 327 of ComA as well as by absence of a PCR product corresponding to a region spanning codons 79 to 279 of lpxM to check for duplications. A deletion of the lon protease was made in the same manner to produce the stain used for expression and purification of LptB2FG to mimic the BL21 strain of E. coli used in the rest of purifications, for which the region encompassing 72 base pairs (bp) upstream of the lon start codon and 1 bp downstream of the lon stop codon was excised after being replaced with the same integration cassette, yielding a markerless deletion, with the excising fragment sequence spanning from codon 491 of ArnT to codon 40 of 45_DOPA_Dioxygenase and verified by amplicon sequencing spanning from codon 322 of ArnT to codon 221 of 45_DOPA_Dioxygenase as well as by absence of a PCR product corresponding to a region spanning from codons 328 to 768 of lon to check for duplications. Following amplicon confirmation, three validated isolates of each constructed mutant were tested for susceptibility to a panel of antibiotics with […] known mechanisms of action as a further validation step to ensure congruence of phenotypes across replicates, which was confirmed in all cases and one of the validated replicates was later used for MIC measurements reported here.
MIC determinations were performed by broth microdilution in line with CLSI guidelines (CLSI M07-A11 2018). Bacterial inocula were prepared by diluting overnight liquid cultures in LB. Antibacterial panels containing antibacterial solutions were inoculated with an appropriate volume of inoculum to give a final inoculum of about 5 × 10^5 c.f.u. ml^−1 and desired test concentrations of antibacterial agents in standard 96-well plates with 0.1 ml of culture per well. The test plates were incubated for 20–24 h and optical density (OD600) was recorded using a plate reader. MIC values corresponded to the lowest compound concentration inhibiting bacterial growth beyond which OD ceased to decrease.

Q: CN1C(=O)[C@H](CCCCN)NC(=O)[C@H](CCCN)NCc2cccnc2Sc2c(Cl)ccc(-c3ccc(N)nc3)c2CNC(=O)[C@@H]1Cc1c[nH]c2ccccc12 [Compound 1] was tested. Which “Inhibition of LPS release to LptA” value (LptB2F^I317NGC) did it give?
A: Its value is “did not block LPS release”.

Q: What about the “Fold less susceptible than wild type” value ([1]; A. baylyi lpxM deletion strain vs wild type) of the same molecule?
A: Its value is 30 fold.

Q: What about the MIC ([1]; A. baylyi ΔlpxM) of the same molecule?
A: The MIC was 0.3 µM and 0.2 µg/mL.
